Converted amounts (≈) assume the structure as drawn. Where two headings read alike, the source gives them in different places.
Tests used:
Assay in all cases: Antibacterial activity MIC assay (two-fold dilution agar plating)
Type in all cases: cell-based
Proteus mirabilis = system: Proteus mirabilis
Protocol: (§1) Antibacterial Activity-Evaluating Method (MIC Assay)
(§2) In this study, the compounds of the present invention were tested for their antibacterial activities by using two-fold dilution agar plating method and Denley Multipoint Inoculator A400 according to the guidelines of the CLSI/NCCLS standard. The tested strains were amplified by hydrolyzed casein peptone (Mueller-Hinton Agar) broth and Brain and Heart Infusion. The strains used in this study were bacterial strains that were purchased from ATCC or clinically isolated in Chinese hospitals. Aztreonam, polymyxin or levofloxacin was used as positive control. The drugs were diluted with hydrolyzed casein peptone broth to the desired concentrations including 128.0, 64.0, 32.0, 16.0, 8.0, 4.0, 2.0, 1.0, 0.5, 0.25, 0.125, 0.06 and 0.03 μg/mL, and then placed respectively into each well and mixed thoroughly. After inoculation, the tested strains were incubated for 18 hours at a constant temperature of 35° C., and their growth levels were observed. The drug concentration with no microbial growth in the well was recorded as the lowest Minimal Inhibitory Concentration (MIC).

Serratia marcescens = Serratia marcescens ATCC 21074
Protocol: as §1, §2

Salmonella typhi = system: Salmonella typhi
Protocol: as §1, §2

Citrobacter freundii = Citrobacter freundii ATCC 43864
Protocol: as §1, §2

Escherichia coli = conditions: for MIC: Escherichia coli, read-out: Minimal Inhibitory Concentration (MIC)
Protocol: as §1, §2

Pseudomonas aeruginosa = conditions: for MIC: read-out: Minimal Inhibitory Concentration (MIC)
Protocol: as §1, §2

[1] = system: Stenotrophomonas maltophilia; conditions: Stenotrophomonas maltophilia ATCC 13636
Protocol: as §1, §2

Acinetobacter baumannii = conditions: for MIC: Acinetobacter baumannii, read-out: Minimal Inhibitory Concentration (MIC)
Protocol: as §1, §2

Proteus vulgaris = system: Proteus vulgaris
Protocol: as §1, §2

Enterobacter cloacae = conditions: for MIC: read-out: Minimal Inhibitory Concentration (MIC)
Protocol: as §1, §2

Shigella flexneri = Shigella flexneri ATCC 12022
Protocol: as §1, §2

Enterobacter aerogenes = Enterobacter aerogenes ATCC 13048
Protocol: as §1, §2

Klebsiella Pneumoniae = conditions: for MIC: Klebsiella pneumoniae, read-out: Minimal Inhibitory Concentration (MIC)
Protocol: as §1, §2

Providencia rettgeri = system: Providencia rettgeri
Protocol: as §1, §2

[2] = Escherichia coli 08-85, mcr-1(+)
[3] = Escherichia coli 13-43, mcr-1(+)
[4] = Escherichia coli 13-66, mcr-1(+)
[5] = Escherichia coli 16-1, ESBLs(+)
[6] = Escherichia coli 16-7, ESBLs(−)
[7] = Escherichia coli 17-R28, CRE, NDM-1(+)
[8] = Escherichia coli CDC1001728, NDM-1(+)
[9] = Enterobacter cloacae CDC1000654
[10] = Klebsiella Pneumoniae 09-20, mcr-1(+)
[11] = Klebsiella Pneumoniae 16-2, ESBLs(−)
[12] = Klebsiella Pneumoniae 16-14, ESBLs(+)

CC1(C)[C@H](NC(=O)/C(=N\OC2(C(=O)O)CC2)c2nsc(N)n2)C(=O)N1OS(=O)(=O)O [Compound A-6]
Minimal Inhibitory Concentration (MIC) (Proteus mirabilis; Proteus mirabilis ATCC 49565): 1 µg/mL | Minimal Inhibitory Concentration (MIC) (Serratia marcescens): 1 µg/mL | Minimal Inhibitory Concentration (MIC) (Salmonella typhi; Salmonella typhi H901): 0.5 µg/mL | Minimal Inhibitory Concentration (MIC) (Citrobacter freundii): 0.25 µg/mL | Minimal Inhibitory Concentration (MIC) (Escherichia coli; [2]): 4 µg/mL | Minimal Inhibitory Concentration (MIC) (Escherichia coli; [3]): 4 µg/mL | Minimal Inhibitory Concentration (MIC) (Escherichia coli; [4]): 4 µg/mL | Minimal Inhibitory Concentration (MIC) (Escherichia coli; [5]): 0.5 µg/mL | Minimal Inhibitory Concentration (MIC) (Escherichia coli; [6]): 0.5 µg/mL | Minimal Inhibitory Concentration (MIC) (Escherichia coli; [7]): >64 µg/mL | Minimal Inhibitory Concentration (MIC) (Escherichia coli; Escherichia coli ATCC 25922, ESBLs(−)): 0.5 µg/mL | Minimal Inhibitory Concentration (MIC) (Escherichia coli; Escherichia coli ATCC 35218, ESBLs(+)): 0.25 µg/mL | Minimal Inhibitory Concentration (MIC) (Escherichia coli; [8]): 4 µg/mL | Minimal Inhibitory Concentration (MIC) (Pseudomonas aeruginosa; Pseudomonas aeruginosa 16-11): 16 µg/mL | Minimal Inhibitory Concentration (MIC) (Pseudomonas aeruginosa; Pseudomonas aeruginosa ATCC 27853): 16 µg/mL | Minimal Inhibitory Concentration (MIC) (Pseudomonas aeruginosa; Pseudomonas aeruginosa PAO1): 8 µg/mL | Minimal Inhibitory Concentration (MIC) [1]: 32 µg/mL | Minimal Inhibitory Concentration (MIC) (Acinetobacter baumannii; Acinetobacter baumannii 16-16): >64 µg/mL | Minimal Inhibitory Concentration (MIC) (Acinetobacter baumannii; Acinetobacter baumannii 16-33): 16 µg/mL | Minimal Inhibitory Concentration (MIC) (Acinetobacter baumannii; Acinetobacter baumannii ATCC 19606): 16 µg/mL | Minimal Inhibitory Concentration (MIC) (Proteus vulgaris; Proteus vulgaris ATCC 29905): ≤0.03 µg/mL | Minimal Inhibitory Concentration (MIC) (Enterobacter cloacae; Enterobacter cloacae ATCC 43560): 0.5 µg/mL | Minimal Inhibitory Concentration (MIC) (Enterobacter cloacae; [9]): 64 µg/mL | Minimal Inhibitory Concentration (MIC) (Shigella flexneri): 0.06 µg/mL | Minimal Inhibitory Concentration (MIC) (Enterobacter aerogenes): 1 µg/mL | Minimal Inhibitory Concentration (MIC) (Klebsiella Pneumoniae; [10]): 2 µg/mL | Minimal Inhibitory Concentration (MIC) (Klebsiella Pneumoniae; [11]): 0.5 µg/mL | Minimal Inhibitory Concentration (MIC) (Klebsiella Pneumoniae; [12]): 4 µg/mL | Minimal Inhibitory Concentration (MIC) (Klebsiella Pneumoniae; Klebsiella Pneumoniae ATCC 700603, ESBLs(+)): 64 µg/mL | Minimal Inhibitory Concentration (MIC) (Klebsiella Pneumoniae; Klebsiella Pneumoniae ATCC BAA-2146, NDM-1(+)): 32 µg/mL | Minimal Inhibitory Concentration (MIC) (Providencia rettgeri; Providencia rettgeri ATCC 31052): ≤0.03 µg/mL

CC1(C)[C@H](NC(=O)/C(=N\OC2(C(=O)O)CCCCC2)c2csc(N)n2)C(=O)N1OS(=O)(=O)O [Compound A-7]
MIC (Proteus mirabilis; Proteus mirabilis, ATCC49565, Proteus mirabilis ATCC 49565, read-out: Minimal Inhibitory Concentration (MIC)): 0.12 µg/mL (≈ 0.237 µM) | MIC (Serratia marcescens; ATCC21074, read-out: Minimal Inhibitory Concentration (MIC)): 2 µg/mL (≈ 3.96 µM) | MIC (Salmonella typhi; Salmonella enterica, TYPHI, read-out: Minimal Inhibitory Concentration (MIC)): 4 µg/mL (≈ 7.91 µM) | MIC (Citrobacter freundii; ATCC43864, read-out: Minimal Inhibitory Concentration (MIC)): 2 µg/mL (≈ 3.96 µM) | MIC (Escherichia coli; ATCC25922, Escherichia coli ATCC 25922, ESBLs(−)): 4 µg/mL (≈ 7.91 µM) | MIC (Escherichia coli; ATCC35218, Escherichia coli ATCC 35218, ESBLs(+)): 1 µg/mL (≈ 1.98 µM) | MIC (Escherichia coli; [2]): 2 µg/mL (≈ 3.96 µM) | MIC (Escherichia coli; [3]): 2 µg/mL (≈ 3.96 µM) | MIC (Escherichia coli; [4]): 2 µg/mL (≈ 3.96 µM) | MIC (Escherichia coli; [5]): 1 µg/mL (≈ 1.98 µM) | MIC (Escherichia coli; [6]): 2 µg/mL (≈ 3.96 µM) | MIC (Escherichia coli; [7]): 64 µg/mL (≈ 127 µM) | MIC (Escherichia coli; [8]): 2 µg/mL (≈ 3.96 µM) | MIC (Pseudomonas aeruginosa; ATCC27853, Pseudomonas aeruginosa ATCC 27853): 32 µg/mL (≈ 63.3 µM) | MIC (Pseudomonas aeruginosa; Pseudomonas aeruginosa 16-11): > 64 µg/mL | MIC (Pseudomonas aeruginosa; Pseudomonas aeruginosa PAO1): 32 µg/mL (≈ 63.3 µM) | MIC ([1]; ATCC13636, read-out: Minimal Inhibitory Concentration (MIC)): 16 µg/mL (≈ 31.6 µM) | MIC (Acinetobacter baumannii; ATCC19606, Acinetobacter baumannii ATCC 19606): 32 µg/mL (≈ 63.3 µM) | MIC (Acinetobacter baumannii; Acinetobacter baumannii 16-16): > 64 µg/mL | MIC (Acinetobacter baumannii; Acinetobacter baumannii 16-33): 32 µg/mL (≈ 63.3 µM) | MIC (Proteus vulgaris; Proteus vulgaris, ATCC29905, Proteus vulgaris ATCC 29905, read-out: Minimal Inhibitory Concentration (MIC)): 0.25 µg/mL (≈ 0.495 µM) | MIC (Enterobacter cloacae; ATCC43560, Enterobacter cloacae ATCC 43560): 1 µg/mL (≈ 1.98 µM) | MIC (Enterobacter cloacae; [9]): 16 µg/mL (≈ 31.6 µM) | MIC (Shigella flexneri; ATCC12022, read-out: Minimal Inhibitory Concentration (MIC)): 2 µg/mL (≈ 3.96 µM) | MIC (Enterobacter aerogenes; Klebsiella aerogenes, ATCC13048, read-out: Minimal Inhibitory Concentration (MIC)): 4 µg/mL (≈ 7.91 µM) | MIC (Klebsiella Pneumoniae; ATCC700603, Klebsiella Pneumoniae ATCC 700603, ESBLs(+)): 8 µg/mL (≈ 15.8 µM) | MIC (Klebsiella Pneumoniae; ATCCBAA2146, Klebsiella Pneumoniae ATCC BAA-2146, NDM-1(+)): 8 µg/mL (≈ 15.8 µM) | MIC (Klebsiella Pneumoniae; [10]): 2 µg/mL (≈ 3.96 µM) | MIC (Klebsiella Pneumoniae; [11]): 2 µg/mL (≈ 3.96 µM) | MIC (Klebsiella Pneumoniae; [12]): 2 µg/mL (≈ 3.96 µM) | MIC (Klebsiella Pneumoniae; Klebsiella Pneumoniae 17-R27, CRE): 4 µg/mL (≈ 7.91 µM) | MIC (Providencia rettgeri; Providencia rettgeri, ATCC31052, Providencia rettgeri ATCC 31052, read-out: Minimal Inhibitory Concentration (MIC)): 0.25 µg/mL (≈ 0.495 µM)

Reference: US12497393B2, “β-lactam compound, use thereof and preparation method therefor” (priority 2020, dated 2025)
